Experimental data from paper PMC5640562, “Synthesis and anticancer activity of novel quinazolinone-based rhodanines” (Chemistry Central Journal, 2017).

test system: not given; test: not given; conditions: not given

Row | SMILES | melting point
1 | O=C1NC(=S)SC1=Cc1ccc(OCc2nc3ccccc3c(=O)n2-c2cccc(Cl)c2)cc1 (hydrate or solvate) [Compound 34, 5-{4-[(3-(3-Chlorophenyl)-4-oxo-3,4-dihydroquinazolin-2-yl)methoxy]benzylidene}-2-thioxothiazolidin-4-one] | 237 to 239 °C
2 | O=C1NC(=S)SC1=Cc1ccc(OCc2nc3ccccc3c(=O)n2-c2ccc(F)cc2)cc1 (hydrate or solvate) [Compound 32, 5-{4-[(3-(4-Fluorophenyl)-4-oxo-3,4-dihydroquinazolin-2-yl)methoxy]benzylidene}-2-thioxothiazolidin-4-one] | 231 to 233 °C (dec.)
3 | O=C1NC(=S)SC1=Cc1ccc(OCc2nc3ccccc3c(=O)n2-c2ccc(Cl)cc2)cc1 (hydrate or solvate) [Compound 33, 5-{4-[(3-(4-Chlorophenyl)-4-oxo-3,4-dihydroquinazolin-2-yl)methoxy]benzylidene}-2-thioxothiazolidin-4-one] | 121 to 123 °C

The next lines start with the values.

Row | melting point | SMILES
4 | 154 to 156 °C | COc1cc(C=C2SC(=S)NC2=O)ccc1OCc1nc2ccccc2c(=O)n1-c1cccc(C)c1 (hydrate or solvate) [Compound 49, 5-{4-[(3-(3-Methylphenyl)-4-oxo-3,4-dihydroquinazolin-2-yl)methoxy]-3-methoxybenzylidene}-2-thioxothiazolidin-4-one]
5 | 190 to 192 °C (dec.) | COc1ccc(-n2c(COc3ccc(C=C4SC(=S)NC4=O)cc3)nc3ccccc3c2=O)cc1 [Compound 40, 5-{4-[(3-(4-Methoxyphenyl)-4-oxo-3,4-dihydroquinazolin-2-yl)methoxy]benzylidene}-2-thioxothiazolidin-4-one]
6 | 171 to 174 °C | O=C1NC(=S)SC1=Cc1ccc(OCc2nc3ccccc3c(=O)n2-c2ccc(Br)cc2)cc1 (hydrate or solvate) [Compound 35, 5-{4-[(3-(4-Bromophenyl)-4-oxo-3,4-dihydroquinazolin-2-yl)methoxy]benzylidene}-2-thioxothiazolidin-4-one]
7 | 243 to 246 °C | COc1cc(C=C2SC(=S)NC2=O)ccc1OCc1nc2ccccc2c(=O)n1-c1ccccc1 (hydrate or solvate) [Compound 41, 5-{4-[(3-Phenyl-4-oxo-3,4-dihydroquinazolin-2-yl)methoxy]-3-methoxybenzylidene}-2-thioxothiazolidin-4-one]
8 | 148 to 150 °C | COc1ccc(-n2c(COc3ccc(C=C4SC(=S)NC4=O)cc3OC)nc3ccccc3c2=O)cc1 (hydrate or solvate) [Compound 50, 5-{4-[(3-(4-Methoxyphenyl)-4-oxo-3,4-dihydroquinazolin-2-yl)methoxy]-3-methoxybenzylidene}-2-thioxothiazolidin-4-one]
9 | 147 to 150 °C | COc1cc(C=C2SC(=S)NC2=O)ccc1OCc1nc2ccccc2c(=O)n1-c1cccc(Cl)c1 [Compound 44, 5-{4-[(3-(3-Chlorophenyl)-4-oxo-3,4-dihydroquinazolin-2-yl)methoxy]-3-methoxybenzylidene]-2-thioxothiazolidin-4-one]
10 | 153 to 155 °C | O=C1NC(=S)SC1=Cc1ccc(OCc2nc3ccccc3c(=O)n2-c2ccc(C(F)(F)F)cc2)cc1 (hydrate or solvate) [Compound 37, 5-{4-[(3-(4-Trifluoromethylphenyl)-4-oxo-3,4-dihydroquinazolin-2-yl)methoxy]benzylidene}-2-thioxothiazolidin-4-one]
11 | 214 to 217 °C | COc1cc(C=C2SC(=S)NC2=O)ccc1OCc1nc2ccccc2c(=O)n1-c1ccc(Br)cc1 (hydrate or solvate) [Compound 45, 5-{4-[(3-(4-Bromophenyl)-4-oxo-3,4-dihydroquinazolin-2-yl)methoxy]-3-methoxybenzylidene}-2-thioxothiazolidin-4-one]
12 | 243 to 245 °C | COc1cc(C=C2SC(=S)NC2=O)ccc1OCc1nc2ccccc2c(=O)n1-c1cccc(Br)c1 (hydrate or solvate) [Compound 46, 5-{4-[(3-(3-Bromophenyl)-4-oxo-3,4-dihydroquinazolin-2-yl)methoxy]-3-methoxybenzylidene}-2-thioxothiazolidin-4-one]
13 | 239 to 241 °C | COc1cc(C=C2SC(=S)NC2=O)ccc1OCc1nc2ccccc2c(=O)n1-c1ccc(Cl)cc1 (hydrate or solvate) [Compound 43, 5-{4-[(3-(4-Chlorophenyl)-4-oxo-3,4-dihydroquinazolin-2-yl)methoxy]-3-methoxybenzylidene}-2-thioxothiazolidin-4-one]
14 | 252 to 254 °C | O=C1NC(=S)SC1=Cc1ccc(OCc2nc3ccccc3c(=O)n2-c2cccc(Br)c2)cc1 (hydrate or solvate) [Compound 36, 5-{4-[(3-(3-Bromophenyl)-4-oxo-3,4-dihydroquinazolin-2-yl)methoxy]benzylidene}-2-thioxothiazolidin-4-one]
15 | 148 to 150 °C | Cc1ccc(-n2c(COc3ccc(C=C4SC(=S)NC4=O)cc3)nc3ccccc3c2=O)cc1 (hydrate or solvate) [Compound 38, 5-{4-[(3-(4-Methylphenyl)-4-oxo-3,4-dihydroquinazolin-2-yl)methoxy]benzylidene}-2-thioxothiazolidin-4-one]
16 | 172 to 175 °C | COc1cc(C=C2SC(=S)NC2=O)ccc1OCc1nc2ccccc2c(=O)n1-c1ccc(C)cc1 (hydrate or solvate) [Compound 48, 5-{4-[(3-(4-Methylphenyl)-4-oxo-3,4-dihydroquinazolin-2-yl)methoxy]-3-methoxybenzylidene}-2-thioxothiazolidin-4-one]

test system: HT-1080 cells; test: MTT cytotoxicity assay, HT-1080 fibrosarcoma cells; format: cell-based, human; conditions: Homo sapiens, HT-1080, 72 h, 3 days incubation, mean of three independent experiments (± standard deviation)
Method: The compounds were tested for their cytotoxic activity on a solid tumor cell line, i.e. HT-1080 originating from a fibrosarcoma (American Type Culture Collection; ATCC, Rockville, MD, USA), and on two leukemia cell lines, i.e. the HL-60 human promyelocytic leukemia (European Collection of Animal Cell Cultures; ECACC, Salisbury, UK) and the K-562 human chronic myelogenous leukemia (ATCC). Furthermore, the human skin fibroblast strain AG01523 (Coriell Institute for Medical Research, Camden, NJ, USA) was also used as normal control. Adherent cells were routinely cultured in Dulbecco’s […] (DMEM), and leukemia cells in RPMI 1640, in an environment of 5% CO2, 85% humidity, and 37 °C. All media were supplemented with penicillin (100 U/ml), streptomycin (100 μg/ml) (media and antibiotics from Biochrom KG, Berlin, Germany), and 10% fetal bovine serum (Life Technologies Europe BV, Thessaloniki, Greece). Adherent cells were subcultured using a trypsin (0.25%; Life Technologies Europe BV)—citrate (0.30%; Sigma, St. Louis, MO, USA) solution. The cytotoxicity assay was performed by a modification of the MTT method. Briefly, the cells were plated in flat-bottomed 96-well microplates at a density of 5000 cells/well, and incubated overnight before the addition of serial dilutions of the test compounds. The cells were incubated with the compounds or the corresponding vehicle (DMSO) concentrations for 3 days. Then, the medium was replaced with MTT (Sigma) in serum-free, phenol-red-free DMEM (1 mg/ml). After incubation for 4 h, the MTT formazan was solubilized in 2-propanol, and the optical density was measured using a FLUOstar Optima (BMG Labtech, Ortenberg, Germany) microplate reader at a wavelength of 550 nm (reference wavelength 660 nm). Doxorubicin hydrochloride (Sigma) was included in the experiments as positive control. The results represent the mean of three independent experiments and are expressed as IC50 [42].

Row | SMILES | IC50 [µM]
17 | O=C1NC(=S)SC1=Cc1ccc(OCc2nc3ccccc3c(=O)n2-c2ccc(Br)cc2)cc1 [Compound 35, 5-{4-[(3-(4-Bromophenyl)-4-oxo-3,4-dihydroquinazolin-2-yl)methoxy]benzylidene}-2-thioxothiazolidin-4-one] | 28.8
18 | COc1ccc(-n2c(COc3ccc(C=C4SC(=S)NC4=O)cc3)nc3ccccc3c2=O)cc1 [Compound 40, 5-{4-[(3-(4-Methoxyphenyl)-4-oxo-3,4-dihydroquinazolin-2-yl)methoxy]benzylidene}-2-thioxothiazolidin-4-one] | 36.4
19 | COc1cc(C=C2SC(=S)NC2=O)ccc1OCc1nc2ccccc2c(=O)n1-c1cccc(Br)c1 [Compound 46, 5-{4-[(3-(3-Bromophenyl)-4-oxo-3,4-dihydroquinazolin-2-yl)methoxy]-3-methoxybenzylidene}-2-thioxothiazolidin-4-one] | 23.7
20 | O=C1NC(=S)SC1=Cc1ccc(OCc2nc3ccccc3c(=O)n2-c2ccc(F)cc2)cc1 [Compound 32, 5-{4-[(3-(4-Fluorophenyl)-4-oxo-3,4-dihydroquinazolin-2-yl)methoxy]benzylidene}-2-thioxothiazolidin-4-one] | 47.3
21 | COc1cc(C=C2SC(=S)NC2=O)ccc1OCc1nc2ccccc2c(=O)n1-c1cccc(Cl)c1 [Compound 44, 5-{4-[(3-(3-Chlorophenyl)-4-oxo-3,4-dihydroquinazolin-2-yl)methoxy]-3-methoxybenzylidene]-2-thioxothiazolidin-4-one] | 28.4
22 | COc1cc(C=C2SC(=S)NC2=O)ccc1OCc1nc2ccccc2c(=O)n1-c1ccccc1 [Compound 41, 5-{4-[(3-Phenyl-4-oxo-3,4-dihydroquinazolin-2-yl)methoxy]-3-methoxybenzylidene}-2-thioxothiazolidin-4-one] | 36.1
23 | COc1cc(C=C2SC(=S)NC2=O)ccc1OCc1nc2ccccc2c(=O)n1-c1cccc(C)c1 [Compound 49, 5-{4-[(3-(3-Methylphenyl)-4-oxo-3,4-dihydroquinazolin-2-yl)methoxy]-3-methoxybenzylidene}-2-thioxothiazolidin-4-one] | 30.7
24 | O=C1NC(=S)SC1=Cc1ccc(OCc2nc3ccccc3c(=O)n2-c2cccc(Br)c2)cc1 [Compound 36, 5-{4-[(3-(3-Bromophenyl)-4-oxo-3,4-dihydroquinazolin-2-yl)methoxy]benzylidene}-2-thioxothiazolidin-4-one] | 43.4
25 | O=C1NC(=S)SC1=Cc1ccc(OCc2nc3ccccc3c(=O)n2-c2ccc(Cl)cc2)cc1 [Compound 33, 5-{4-[(3-(4-Chlorophenyl)-4-oxo-3,4-dihydroquinazolin-2-yl)methoxy]benzylidene}-2-thioxothiazolidin-4-one] | 35.3
26 | COc1cc(C=C2SC(=S)NC2=O)ccc1OCc1nc2ccccc2c(=O)n1-c1ccc(C)cc1 [Compound 48, 5-{4-[(3-(4-Methylphenyl)-4-oxo-3,4-dihydroquinazolin-2-yl)methoxy]-3-methoxybenzylidene}-2-thioxothiazolidin-4-one] | 31.5
27 | O=C1NC(=S)SC1=Cc1ccc(OCc2nc3ccccc3c(=O)n2-c2cccc(Cl)c2)cc1 [Compound 34, 5-{4-[(3-(3-Chlorophenyl)-4-oxo-3,4-dihydroquinazolin-2-yl)methoxy]benzylidene}-2-thioxothiazolidin-4-one] | 57.1
28 | COc1ccc(-n2c(COc3ccc(C=C4SC(=S)NC4=O)cc3OC)nc3ccccc3c2=O)cc1 [Compound 50, 5-{4-[(3-(4-Methoxyphenyl)-4-oxo-3,4-dihydroquinazolin-2-yl)methoxy]-3-methoxybenzylidene}-2-thioxothiazolidin-4-one] | 34.7
29 | Cc1ccc(-n2c(COc3ccc(C=C4SC(=S)NC4=O)cc3)nc3ccccc3c2=O)cc1 [Compound 38, 5-{4-[(3-(4-Methylphenyl)-4-oxo-3,4-dihydroquinazolin-2-yl)methoxy]benzylidene}-2-thioxothiazolidin-4-one] | 35.7
